Measured values as given in patent US20090305955A1, “Cyclopeptide with Anti-Cancer Activity Derived from Collagen Type IV” (priority 2006, published 2009).
Where a SMILES comes first, the peptide text is derived from it.

Experiments:
UACC-903 melanoma cells = assay: In vitro invasion/migration test (modified Boyden chambers, Matrigel); format: cell-based, human; details: 20 μM; 48 hours; Matrigel membranes, 10% FCS chemoattractive agent
Experimental: FIG. 10: In vitro migration test for UACC-903 human melanoma cells in the presence of the cyclopeptide YSNSG (SEQ ID NO: 3). The UACC-903 cells were incubated with a control medium (control, negative, white bar), a linear heptapeptide CNYYSNS (SEQ ID NO: 5) (positive control, black bar) or with the cyclopeptide YSNSG (SEQ ID NO: 3) at 20 μM (grey bar). After an incubation period of 48 hours, the migrated cells were stained with crystal violet and counted under reverse microscopy.
Cell invasion was tested in modified Boyden chambers (ThinCert®, a cell culture insert for 24-well plates, internal diameter 8.36 mm, 8 μm pore, Greiner Bio-one, Courtaboeuf, France). Briefly, 5×10^4 cells were suspended in DMEM medium without FCS and containing 0.2% BSA and seeded onto membranes spread with Matrigel (30 μg/cm^2). DMEM medium supplemented with 10% FCS and 2% BSA were used as the chemo-attracting agent. […] The cells remaining on the upper surface of the membranes were eliminated by scraping and those on the lower surface were counted using a reverse microscope (Pasco et al, 2000(a)). The counted cells corresponded to the cells which had crossed the Matrigel mat then the porous membrane of the Boyden chamber; they thus reflected the migration and invasion capacities of the tumour cells through an extracellular matrix or a basal membrane, reproduced in this case by the Matrigel.

MMP-2 = assay: Zymography in the presence of gelatine, conditioned medium of UACC-903 cells; format: cell-based, human; details: cyclopeptide 5 to 20 μM, linear heptapeptide 20 μM
Experimental: (§1) FIG. 11: Effect of YSNSG (SEQ ID NO: 3) cyclopeptide on secretion of MMP-2 and MMP-9. The secretion of MMP-2 and MMP-9 was analyzed by zymography in the presence of gelatine (A), on a medium conditioned by UACC-903 cells in the absence of peptide (negative control, white bar), on cells treated with linear heptapeptide CNYYSNS (SEQ ID NO: 5) (20 μM) (positive control, black bar) or cells treated with concentrations of 5 μM to 20 μM of cyclopeptide (grey bars) YSNSG (SEQ ID NO: 3). The conditioned medium was collected and analyzed as described in the method. Quantification was carried out using Bio 1D software. B: quantification of proMMP2; C: quantification of proMMP-9 (A.U.: arbitrary unit);
(§2) The expression of MMP-2 and MMP-9 in a conditioned medium of UACC-903 cells, treated or not treated with synthetic peptides, was analyzed by zymography in the presence of gelatine as described above (Pasco et al, 2000(a)). The secretion of TIMP-2 was analyzed in a conditioned medium of UACC-903 cells by reverse zymography in the presence of gelatine, as described above (Pascal et al, 2000(a)).

MMP-9 = assay: as above; format: cell-based, human; details: cyclopeptide 5 to 20 μM, linear heptapeptide 20 μM
Experimental: as §1, §2

TIMP-1 = assay: Reverse zymography of TIMP secretion, UACC-903 cells; format: cell-based, human; details: conditioned culture medium
Experimental: (§3) FIG. 13: Effect of YSNSG (SEQ ID NO: 3) cyclopeptide on secretion of TIMP. The secretion of 3 tissue inhibitors of metalloproteinases (TIMP) was analyzed by reverse zymography (A) in a medium conditioned by control UACC-903 cells in the absence of peptide (negative control, white bar), on cells treated with the linear heptapeptide CNYYSNS (SEQ ID NO: 5) (20 μM) (positive control, black bar) or treated with cyclopeptide YSNSG (SEQ ID NO: 3) at a concentration from 5 μM to 20 μM (grey bars). The conditioned medium was recovered and analyzed as described in the methods.
as §2

TIMP-2 = assay: as above; format: cell-based, human; details: cyclopeptide 5 to 20 μM, linear heptapeptide 20 μM
Experimental: as §3, §2

TIMP-3 = assay: as above; format: cell-based, human; details: conditioned culture medium
Experimental: as §3, §2

t-PA = assay: Zymography in the presence of gelatine and plasminogen, UACC-903 cells; format: cell-based, human; details: cyclopeptide 5 to 20 μM, linear heptapeptide 20 μM
Experimental: (§4) FIG. 14: Effect of YSNSG (SEQ ID NO: 3) cyclopeptide on the secretion of plasminogen activators. The secretion of u-PA (urokinase type plasminogen activator) and t-PA (tissue plasminogen activator) was analyzed by zymography in the presence of gelatine and plasminogen (A) in a medium conditioned by control UACC-903 cells in the absence of peptide (negative control, white bar), on cells treated with linear heptapeptide CNYYSNS (SEQ ID NO: 5) (20 μM) (positive control, black bar) or treated with the cyclopeptide YSNSG (SEQ ID NO: 3) at a concentration varying from 5 μM to 20 μM (grey bars). The conditioned medium was recovered and analyzed as described in the methods.
(§5) To determine the plasminogen activities, conditioned media of UACC-903 cells were analyzed by polyacrylamide gel electrophoresis in the presence of SDS and containing 1 mg/ml of gelatine and 10 μg/ml of plasminogen. After electrophoresis, the gels were incubated overnight at ambient temperature in a 100 mM glycine, 5 mM EDTA, pH 8.0 buffer.

u-PA = assay: as above; format: cell-based, human; details: cyclopeptide 5 to 20 μM, linear heptapeptide 20 μM
Experimental: as §4, §5

[1] = tested on: B16F1 murine melanoma cells; assay: Measurement of in vivo tumour growth, pre-incubated B16F1 cells injected s.c.; parameters: species or system C57BL6 mice; details: day 20; for in vivo tumour growth: B16F1 cells pre-incubated 15 minutes with 20 μM peptide, s.c. in C57BL6 mice
Experimental: FIG. 16: In vivo tumour growth in the presence of YSNSG (SEQ ID NO: 3) cyclopeptide. B16F1 cells were incubated for 15 minutes with a control medium (negative control, white diamonds), with the linear heptapeptide CNYYSNS (SEQ ID NO: 5) (20 μM) (positive control, black diamonds) or with the cyclopeptide YSNSG (SEQ ID NO: 3) at a concentration of 20 μM (grey diamonds), then injected subcutaneously into syngenic C57BL6 mice (2.5×10^5 cells per mouse). The tumour volume was measured on the 20th day;
Female C57BL6 mice (mean body weight 18 to 20 g) were purchased from Harlan France (Gannat, France). The animals were placed in individual cages at a constant temperature and humidity; food and water were supplied ad libitum. All of the mice underwent a 1 week acclimatization period before commencing the experiments. The in vivo experiments were carried out in accordance with the recommendations of the Centre National de la recherché Scientifique (CNRS, National Centre for Scientific Research).
A suspension of B16F1 cells (2.5×10^5 cells in RPMI 1640 medium) which may or may not have been pre-treated with the cyclopeptide YSNSG (SEQ ID NO: 3) (20 μM) was injected subcutaneously into the left flank of syngenic mice from a different series. The mice were sacrificed on day 20 and the tumour size was measured. The volume of the tumours was determined by the relationship V=½A×B^2 in which A and B respectively represent the largest and the smallest dimension of the tumour (Wald et al).

Compound | reduction in the migration of UACC-903 cells (UACC-903 melanoma cells) | secretion of MMP-2 (MMP-2) | secretion of MMP-9 (MMP-9) | Secretion of TIMP-1 (TIMP-1) | secretion of TIMP-2 (TIMP-2) | Secretion of TIMP-3 (TIMP-3) | secretion of t-PA (t-PA) | secretion of u-PA (u-PA) | in vivo tumour growth [1] | reduction in tumour volume ([1]; B16F1 cells pre-treated with 20 μM, no re-injection of peptide, C57BL6 mice)
NC(=O)CC1NC(=O)C(CO)NC(=O)C(Cc2ccc(O)cc2)NC(=O)CNC(=O)C(CO)NC1=O (stereo not shown) [cyclopeptide YSNSG, cyclopeptide YSNSG (SEQ ID NO: 3)] (cyclo(GYSNS); configuration not given here) | −47% | No significant change | No significant change | not modified | dose-dependent increase | not modified | dose-dependent reduction | dose-dependent reduction | inhibited tumour growth | 46%
CNYYSNS (Synthetic linear heptapeptide) [linear peptide NC1 [α3(IV) 185-191], the 7 N-terminal amino acids of the 185-203 domain; positive control, reference compound] | similar | No significant change | No significant change | not modified | dose-dependent increase | not modified | reduction observed | reduction observed | inhibited tumour growth | 
